Data as given in patent US20250032454A1, “KDM1A INHIBITORS FOR THE TREATMENT OF DISEASE” (Imago Biosciences, Inc., priority 2021, published 2025).
Read-outs that look alike come from different tables or passages of the source.

Columns and labels:
LSD1 = LSD1 (Homo sapiens, UniProt O60341); experiment: LSD1 fluorescence coupling enzyme assay (HRP/Amplex Red, H3(1-21)K4me2 peptide), 10-dose IC50; assay type: biochemical; conditions: 10 μM histone H3(1-21)K4me2 peptide substrate, 3-fold serial dilution from 100 μM
Outline: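 Fluorescence coupled assay: LSD1 demethylation of 10 μM H3(1-21)K4me2 peptide produces FAD-dependent H2O2, detected via HRP/Amplex Red as resorufin (Ex/Em 535/590 nm). IC50 from 10 doses, 3-fold serial dilution from 100 μM, in duplicate.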

MV4;11 cells = experiment: Cell Titer-Glo cell growth inhibition in MV4;11 cell line (Day 5 / Day 10); assay type: cell-based; conditions: Homo sapiens
Description: Cell growth inhibition against MV4;11 cells was confirmed for the synthetic compounds. The Cell Titer-Glo Luminescent Cell Viability Assay (Promega, USA) was used to determine the number of viable cells in culture based on quantitation of the ATP present, which signals the presence of metabolically active cells. This assay was run in a 96-well plate format arrayed in a 10-point dose curve, ranging from 0 to 50 µM with 4-fold dilutions for each compound. Cells are seeded on Day 0 at 3750 cells per well. At Day 5, a portion of each well is assayed for viability according to the Cell Titer-Glo protocol. Briefly, cells/plates were centrifuged at 1100×g for 5 minutes. 100 μL of media was removed from each well and replaced with 100 μL of CellTiter-Glo. The plates were shaken at room temperature for 10 minutes and measured on a luminescence plate reader. Another portion of each well from the Day 5 plate is used to seed a new 96 plate containing fresh compound and media set up in the equivalent 10-point dose curve array in order to continue the cell growth inhibition assay for another 5 days. A final timepoint is collected at Day 10 using the Cell Titer-Glo protocol. Luminescence was detected on an En Vision® Multilabel Plate Reader (Perkin Elmer, Waltham, Mass.) and IC50 determination was made using Graph Pad Prism software.

[1] = MV4-11, 120 h, Day 5, read-out: Cell Titer-Glo IC50 (5 d)
[2] = MV4-11, 240 h, Day 10, read-out: Cell Titer-Glo IC50 (10 d)

SMILES	IC50 (LSD1)	IC50 (MV4;11 cells; [1])	IC50 (MV4;11 cells; [2])
N#Cc1ccc(-c2cc(NC[C@H]3CCC[C@H](N)C3)nn2-c2ccc(N3CCS(=O)(=O)CC3)cc2)cc1F [Example 50, 4-(3-((((1S,3S)-3-aminocyclohexyl)methyl)amino)-1-(4-(1,1-dioxidothiomorpholino)phenyl)-1H-pyrazol-5-yl)-2-fluorobenzonitrile]	< 0.5 µM	< 0.5 µM	< 0.5 µM
N#Cc1ccc(-c2cc(NC[C@H]3CCC[C@H](N)C3)nn2-c2ccc3nn(-c4ccccc4)cc3c2)cc1F [Example 16, 4-(3-((((1S,3S)-3-aminocyclohexyl)methyl)amino)-1-(2-phenyl-2H-indazol-5-yl)-1H-pyrazol-5-yl)-2-fluorobenzonitrile]	< 0.5 µM	< 0.5 µM	< 0.5 µM
CS(=O)(=O)n1cc(-c2cccc(-n3nc(NC[C@H]4CCC[C@H](N)C4)cc3-c3ccc(C#N)c(F)c3)c2)cn1 [Example 60, 4-(3-((((1S,3S)-3-aminocyclohexyl)methyl)amino)-1-(3-(1-(methylsulfonyl)-1H-pyrazol-4-yl)phenyl)-1H-pyrazol-5-yl)-2-fluorobenzonitrile]	1 to 10 µM	1 to 10 µM	< 0.5 µM
COc1ccc(-n2nc(NC[C@@H]3CCC[C@@H](CN)C3)cc2-c2ccc(C#N)c(F)c2)cc1 [Example 78, 4-(3-((((1R,3R)-3-(aminomethyl)cyclohexyl)methyl)amino)-1-(4-methoxyphenyl)-1H-pyrazol-5-yl)-2-fluorobenzonitrile]	< 0.5 µM	1 to 10 µM	1 to 10 µM
Cc1ccc(-n2nc(NC[C@H]3CCC[C@H](N)C3)cc2-c2ccc(C#N)c(F)c2)cc1 [Example 12SS, 4-(3-((((1S,3S)-3-aminocyclohexyl)methyl)amino)-1-(p-tolyl)-1H-pyrazol-5-yl)-2-fluorobenzonitrile]	< 0.5 µM	< 0.5 µM	< 0.5 µM
N#Cc1ccc(-c2cc(NC[C@H]3CCC[C@H](N)C3)nn2-c2ccc3[nH]ncc3c2)cc1F [Example 65, 4-(3-((((1S,3S)-3-aminocyclohexyl)methyl)amino)-1-(1H-indazol-5-yl)-1H-pyrazol-5-yl)-2-fluorobenzonitrile]	< 0.5 µM	0.5 to 1 µM	< 0.5 µM
N#Cc1ccc(-c2cc(NC[C@H]3CCCNCC3)nn2-c2ccc(N3CCN(CCO)CC3)cc2)cc1F (single isomer, unassigned) [Example 27b]	< 0.5 µM	< 0.5 µM	< 0.5 µM
Cn1cc2cc(-n3nc(NC[C@@H]4CCC[C@@H](N)C4)cc3-c3ccc(C#N)c(F)c3)ccc2n1 [Example 13RR, 4-(3-((((1R,3R)-3-aminocyclohexyl)methyl)amino)-1-(2-methyl-2H-indazol-5-yl)-1H-pyrazol-5-yl)-2-fluorobenzonitrile]	< 0.5 µM	1 to 10 µM	< 0.5 µM
Cc1ccc(-n2nc(NC[C@@H]3CCC[C@@H](N)C3)cc2-c2ccc(C#N)c(F)c2)cc1 [Example 12RR, 4-(3-((((1R,3R)-3-aminocyclohexyl)methyl)amino)-1-(p-tolyl)-1H-pyrazol-5-yl)-2-fluorobenzonitrile]	0.5 to 1 µM	1 to 10 µM	< 0.5 µM
N#Cc1ccc(-c2cc(NC[C@H]3CCCNCC3)nn2-c2ccc(C(=O)N3CCCC3)cc2)cc1F (single isomer, unassigned) [Example 25b]	< 0.5 µM	1 to 10 µM	< 0.5 µM
COc1ccc(-n2nc(NCc3cccc(N)c3)cc2-c2ccc(C#N)c(F)c2)cc1 [Example 40, 4-(3-((3-aminobenzyl)amino)-1-(4-methoxyphenyl)-1H-pyrazol-5-yl)-2-fluorobenzonitrile]	1 to 10 µM	–	> 10 µM
N#Cc1ccc(-c2cc(NC[C@H]3CCC[C@H](N)C3)nn2-c2cccc(-c3cn[nH]c3)c2)cc1F [Example 53, 4-(1-(3-(1H-pyrazol-4-yl)phenyl)-3-((((1S,3S)-3-aminocyclohexyl)methyl)amino)-1H-pyrazol-5-yl)-2-fluorobenzonitrile]	< 0.5 µM	0.5 to 1 µM	< 0.5 µM
COc1ccc(-n2nc(NCC3CCCC(CN)C3)cc2-c2ccc(C#N)c(F)c2)cc1 (stereo not shown) [Example 28, 4-(3-(((-3-(aminomethyl)cyclohexyl)methyl)amino)-1-(4-methoxyphenyl)-1H-pyrazol-5-yl)-2-fluorobenzonitrile]	0.5 to 1 µM	1 to 10 µM	1 to 10 µM
Cn1nc2ccc(-n3nc(NC[C@H]4CCC[C@H](N)C4)cc3-c3ccc(C#N)c(F)c3)cc2c1Cl [Example 14SS, 4-(3-((((1S,3S)-3-aminocyclohexyl)methyl)amino)-1-(3-chloro-2-methyl-2H-indazol-5-yl)-1H-pyrazol-5-yl)-2-fluorobenzonitrile]	< 0.5 µM	–	< 0.5 µM
Cn1cc2cc(-n3nc(NCC4CCCNC4)cc3-c3ccc(C#N)c(F)c3)ccc2n1 (stereo not shown) [Example 9, 2-Fluoro-4-(1-(2-methyl-2H-indazol-5-yl)-3-((piperidin-3-ylmethyl)amino)-1H-pyrazol-5-yl)benzonitrile]	< 0.5 µM	< 0.5 µM	–
N#Cc1ccc(-c2cc(NCC3CCCNCC3)nn2-c2ccc(C(=O)N3CCCC3)cc2)cc1F (stereo not shown) [Example 25, 4-(3-((azepan-4-ylmethyl)amino)-1-(4-(pyrrolidine-1-carbonyl)phenyl)-1H-pyrazol-5-yl)-2-fluorobenzonitrile]	1 to 10 µM	0.5 to 1 µM	< 0.5 µM
Cn1ncc2cc(-n3nc(NC[C@H]4CCC[C@@H](N)C4)cc3-c3ccc(C#N)c(F)c3)ccc21 (single isomer, unassigned) [Example 7a]	0.5 to 1 µM	1 to 10 µM	–
CN1CCN(c2cccc(-n3nc(NC[C@H]4CCC[C@H](N)C4)cc3-c3ccc(C#N)c(F)c3)c2)CC1 [Example 45, 4-(3-((((1S,3S)-3-aminocyclohexyl)methyl)amino)-1-(3-(4-methylpiperazin-1-yl)phenyl)-1H-pyrazol-5-yl)-2-fluorobenzonitrile]	1 to 10 µM	0.5 to 1 µM	< 0.5 µM
Cn1ncc2cc(-n3nc(NC[C@@H]4CCC[C@@H](N)C4)cc3-c3ccc(C#N)c(F)c3)ccc21 (single isomer, unassigned) [Example 7d]	< 0.5 µM	< 0.5 µM	< 0.5 µM
Cn1cc2cc(-n3nc(NC[C@H]4CCC[C@H](N)C4)cc3-c3ccc(C#N)c(F)c3)ccc2n1 [Example 13SS, 4-(3-((((1S,3S)-3-aminocyclohexyl)methyl)amino)-1-(2-methyl-2H-indazol-5-yl)-1H-pyrazol-5-yl)-2-fluorobenzonitrile]	< 0.5 µM	–	< 0.5 µM
N#Cc1ccc(-c2cc(NC[C@H]3CCC[C@H](N)C3)nn2-c2ccc(-c3cnn(CCCO)c3)cc2)cc1F [Example 58, 4-(3-((((1S,3S)-3-aminocyclohexyl)methyl)amino)-1-(4-(1-(3-hydroxypropyl)-1H-pyrazol-4-yl)phenyl)-1H-pyrazol-5-yl)-2-fluorobenzonitrile]	< 0.5 µM	< 0.5 µM	< 0.5 µM
N#Cc1ccc(-c2cc(NC[C@H]3CCC[C@H](N)C3)nn2-c2cccc(-n3ccnn3)c2)cc1F [Example 62, 4-(1-(3-(1H-1,2,3-triazol-1-yl)phenyl)-3-((((1S,3S)-3-aminocyclohexyl)methyl)amino)-1H-pyrazol-5-yl)-2-fluorobenzonitrile]	0.5 to 1 µM	1 to 10 µM	< 0.5 µM
N#Cc1ccc(-c2cc(NC[C@@H]3CCCNCC3)nn2-c2ccc(N3CCN(CCO)CC3)cc2)cc1F (single isomer, unassigned) [Example 27a]	< 0.5 µM	0.5 to 1 µM	< 0.5 µM
Cn1ncc2cc(-n3nc(NC[C@H]4CCC[C@H](N)C4)cc3-c3ccc(C#N)c(F)c3)ccc21 (single isomer, unassigned) [Example 7c]	< 0.5 µM	< 0.5 µM	< 0.5 µM
Cn1nc2ccc(-n3nc(NC[C@@H]4CCC[C@@H](N)C4)cc3-c3ccc(C#N)c(F)c3)cc2c1Cl [Example 14RR, 4-(3-((((1R,3R)-3-aminocyclohexyl)methyl)amino)-1-(3-chloro-2-methyl-2H-indazol-5-yl)-1H-pyrazol-5-yl)-2-fluorobenzonitrile]	< 0.5 µM	< 0.5 µM	< 0.5 µM
N#Cc1ccc(-c2cc(NC[C@H]3CCC[C@H](N)C3)nn2-c2ccncc2)cc1F [Example 17, 4-(3-((((1S,3S)-3-aminocyclohexyl)methyl)amino)-1-(pyridin-4-yl)-1H-pyrazol-5-yl)-2-fluorobenzonitrile]	> 10 µM	1 to 10 µM	1 to 10 µM
N#Cc1ccc(-c2cc(NC[C@H]3CCC[C@H](N)C3)nn2-c2cccc(N3CCS(=O)(=O)CC3)c2)cc1F [Example 51, 4-(3-((((1S,3S)-3-aminocyclohexyl)methyl)amino)-1-(3-(1,1-dioxidothiomorpholino)phenyl)-1H-pyrazol-5-yl)-2-fluorobenzonitrile]	1 to 10 µM	1 to 10 µM	< 0.5 µM
